The record followed here is patent publication US20230159489A1, “PHD INHIBITOR COMPOUNDS, COMPOSITIONS, AND USE” (Akebia Therapeutics, Inc., priority 2020, published 2023).

One assay has as its target T1, full-length human PHD1 (Homo sapiens, UniProt Q96KS0).
T1 construct: FLAG (N); purchased Active Motif 81064; host or cells: baculovirus expression system
Put plainly: TR-FRET assay, enzymatic IC50 against PHD1. On IC50: 15 nM PHD1. The class given is biochemical. The source says:
PHD1 was expressed in a baculovirus expression system as the full-length protein (NCBI accession number NP_542770.2) with an N-terminal FLAG tag (molecular weight 44.9 kDa).

In another assay the target is full-length human PHD2 (Homo sapiens, UniProt Q9GZT9). Put plainly: TR-FRET assay, enzymatic IC50 against PHD2.
Chain of full-length human PHD2 (Q9GZT9 whole entry): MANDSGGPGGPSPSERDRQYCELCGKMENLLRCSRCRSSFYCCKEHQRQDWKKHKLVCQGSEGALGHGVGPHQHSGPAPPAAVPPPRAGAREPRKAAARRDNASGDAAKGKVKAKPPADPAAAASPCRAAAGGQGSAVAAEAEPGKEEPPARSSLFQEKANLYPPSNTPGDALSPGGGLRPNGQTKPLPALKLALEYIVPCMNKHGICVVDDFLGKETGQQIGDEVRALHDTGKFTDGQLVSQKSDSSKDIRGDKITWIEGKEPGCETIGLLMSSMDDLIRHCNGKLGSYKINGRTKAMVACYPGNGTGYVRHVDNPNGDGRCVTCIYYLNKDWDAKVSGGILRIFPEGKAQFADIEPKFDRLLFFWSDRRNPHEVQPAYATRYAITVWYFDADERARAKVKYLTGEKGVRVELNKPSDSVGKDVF

T1 sequence (Q96KS0 whole entry): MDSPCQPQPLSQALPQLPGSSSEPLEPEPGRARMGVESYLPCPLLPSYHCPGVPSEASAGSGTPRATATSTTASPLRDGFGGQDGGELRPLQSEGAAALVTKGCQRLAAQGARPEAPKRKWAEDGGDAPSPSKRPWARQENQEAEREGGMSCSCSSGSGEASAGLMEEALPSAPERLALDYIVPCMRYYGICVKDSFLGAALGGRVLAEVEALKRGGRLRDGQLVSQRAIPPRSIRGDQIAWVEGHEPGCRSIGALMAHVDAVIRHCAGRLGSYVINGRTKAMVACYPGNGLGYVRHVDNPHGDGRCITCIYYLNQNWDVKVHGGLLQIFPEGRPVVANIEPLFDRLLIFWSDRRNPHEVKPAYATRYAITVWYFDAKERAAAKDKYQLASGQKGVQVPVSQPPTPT
Source text for full-length human PHD2: Time-resolved fluorescence resonance energy transfer (TR-FRET) assay was utilized to determine the enzymatic half maximal inhibitory concentration (IC50) value of PHD inhibitors against the full-length human prolyl-4-hydroxylase domain (PHD) enzymes, PHD1, PHD2, and PHD3. The TR-FRET assay was developed based on the specific binding of hydroxylated HIF-1α peptide with the complex formed by VHL, EloB and EloC (VBC), to generate a fluorescent signal. Terbium (Tb)-Donor (monoclonal antibody anti-6His-Tb-cryptate Gold) and D2-acceptor (streptavidin [SA]-D2) of TR-FRET are linked to the VBC complex and to HIF-1α peptide, respectively. The VBC complex binds specifically to the HIF-1α peptide when it is hydroxylated, allowing energy transfer from TR-FRET donor to acceptor (FIG. 1). […] The plates were incubated for 30 minutes at room temperature without rotation. […] TR-FRET assays were performed in triplicate at each concentration of compound and the assays were repeated independently three times.

As to `Cc1cc(-n2nc(C)c(-c3ccc(C#N)cc3)c2O)ncc1S(=O)(=O)NC1CC1` [Compound 71, 6-(4-(4-cyanophenyl)-5-hydroxy-3-methyl-1H-pyrazol-1-yl)-N-cyclopropyl-4-methylpyridine-3-sulfonamide], the half-maximal inhibitory concentration (IC50) against full-length human PHD1 and against full-length human PHD2 was under 100 nM throughout. Turning to `Cc1nn(-c2ccc(S(=N)(=O)N(C)C)cn2)c(O)c1-c1ccc(C#N)cc1` (centres unmarked) [Compound 25, 6-(4-(4-cyanophenyl)-5-hydroxy-3-methyl-1H-pyrazol-1-yl)-N,N-dimethylpyridine-3-sulfonimidamide], the IC50 at full-length human PHD1 and against full-length human PHD2 was under 100 nM each time.

Turning to `O=C(O)CCC(=O)C(=O)O` [Compound 2-OG, 2-oxoglutarate, reference compound], the Km at full-length human PHD1 (read-out: Km of 2-OG for PHD1) stood at 0.0127 µM. For `Cc1nn(-c2ccc(-c3nccs3)cn2)c(O)c1-c1ccc(C#N)cc1` [Compound 60, 4-(5-Hydroxy-3-methyl-1-(5-(thiazol-2-yl)pyridin-2-yl)-1H-pyrazol-4-yl)benzonitrile], the IC50 is under 100 nM at full-length human PHD1 and 100 to 1000 nM at full-length human PHD2. For the compound `Cc1nn(-c2cc(C3CC3)c(S(C)(=O)=O)cn2)c(O)c1-c1ccc(C#N)cc1` [Compound 53, 4-(1-(4-cyclopropyl-5-(methylsulfonyl)pyridin-2-yl)-5-hydroxy-3-methyl-1H-pyrazol-4-yl)benzonitrile], the half-inhibitory concentration (IC50) at full-length human PHD1 and against full-length human PHD2 was under 100 nM in each case. Regarding `Cc1cc(-n2nc(C)c(-c3ccc(C#N)cc3)c2O)ncc1S(N)(=O)=O` [Compound 38, 6-(4-(4-cyanophenyl)-5-hydroxy-3-methyl-1H-pyrazol-1-yl)-4-methylpyridine-3-sulfonamide], the IC50 against full-length human PHD1 and on full-length human PHD2 was under 100 nM in each case.

Take `Cc1nn(-c2ccc([S@](=N)(=O)C3CC3)cn2)c(O)c1-c1ccc(Cl)cc1` [Compound 66, (R)-(6-(4-(4-chlorophenyl)-5-hydroxy-3-methyl-1H-pyrazol-1-yl)pyridin-3-yl)(cyclopropyl)(imino)-λ^6-sulfanone]: the concentration for half-maximal inhibition (IC50) against full-length human PHD1 and against full-length human PHD2 was under 100 nM in each case.

Turning to `Cc1nn(-c2ccc(-c3ncc(-c4ccccc4)s3)cn2)c(O)c1-c1ccc(C#N)cc1` [Compound 61, 4-(5-Hydroxy-3-methyl-1-(5-(5-phenylthiazol-2-yl)pyridin-2-yl)-1H-pyrazol-4-yl)benzonitrile], the IC50 at full-length human PHD1 was under 100 nM; on full-length human PHD2, over 10000 nM.

Consider `COc1ccc(-c2c(C)nn(-c3ccc(S(C)(=O)=O)cn3)c2O)cc1C` [Compound 49, 4-(4-methoxy-3-methylphenyl)-3-methyl-1-(5-(methylsulfonyl)pyridin-2-yl)-1H-pyrazol-5-ol], for which the IC50 against full-length human PHD1 and on full-length human PHD2 was 100 to 1000 nM in each case.

In the case of `Cc1nn(-c2ccc(NS(=O)(=O)N(C)C)cn2)c(O)c1-c1ccc(C#N)cc1` [Compound 52, N-(6-(4-(4-cyanophenyl)-5-hydroxy-3-methyl-1H-pyrazol-1-yl)pyridin-3-yl)-N′-dimethylsulfamide], the concentration for half-maximal inhibition (IC50) at full-length human PHD1 and on full-length human PHD2 was under 100 nM each time.

As to `Cc1nn(-c2ccc([S@](=N)(=O)C(C)C)cn2)c(O)c1-c1ccc(C#N)cc1` [Compound 42, (R)-4-(5-hydroxy-3-methyl-1-(5-(S-isopropylsulfonimidoyl)pyridin-2-yl)-1H-pyrazol-4-yl)benzonitrile], the IC50 on full-length human PHD1 and against full-length human PHD2 was under 100 nM each time. On to `CCS(=N)(=O)c1ccc(-n2nc(C)c(-c3ccc(C#N)cc3)c2O)nc1` (centres unmarked) [Compound 21, 4-(5-hydroxy-3-methyl-1-(5-(S-ethylsulfonimidoyl)pyridin-2-yl)-1H-pyrazol-4-yl)benzonitrile], for which the IC50 against full-length human PHD1 and at full-length human PHD2 was under 100 nM each time. Turning to `Cc1cc(-n2nc(C)c(-c3ccc(C#N)cc3)c2O)ncc1S(=O)(=O)Nc1ccccc1` [Compound 70, 6-(4-(4-cyanophenyl)-5-hydroxy-3-methyl-1H-pyrazol-1-yl)-4-methyl-N-phenylpyridine-3-sulfonamide], the values for the half-inhibitory concentration (IC50) against full-length human PHD1 and against full-length human PHD2 were under 100 nM and 100 to 1000 nM, respectively.

`Cc1nn(-c2ccc(S(C)(=N)=O)cn2)c(O)c1-c1ccc(Cl)cc1` (centres unmarked) [Compound 18, (6-(4-(4-chlorophenyl)-5-hydroxy-3-methyl-1H-pyrazol-1-yl)pyridin-3-yl)(imino)(methyl)-λ^6-sulfanone]: the IC50 against full-length human PHD1 and at full-length human PHD2 was under 100 nM throughout.

`Cc1nn(-c2ccc(NC(=O)N3CCOCC3)cn2)c(O)c1-c1ccc(C#N)cc1` [Compound 31, N-(6-(4-(4-cyanophenyl)-5-hydroxy-3-methyl-1H-pyrazol-1-yl)pyridin-3-yl)morpholine-4-carboxamide]: the IC50 against full-length human PHD1 was under 100 nM; against full-length human PHD2 it was 100 to 1000 nM. For the compound `Cc1cc(-n2nc(C)c(-c3ccc(C#N)cc3)c2O)ncc1NS(C)(=O)=O` [Compound 39, N-(6-(4-(4-cyanophenyl)-5-hydroxy-3-methyl-1H-pyrazol-1-yl)-4-methylpyridin-3-yl)methanesulfonamide], the IC50 against full-length human PHD1 and on full-length human PHD2 was under 100 nM in each case.

Take `Cc1cc(-n2nc(C)c(-c3ccc(C#N)cc3)c2O)ncc1[S@](=N)(=O)C1CC1` [Compound 69, (R)-4-(1-(5-(cyclopropanesulfonimidoyl)-4-methylpyridin-2-yl)-5-hydroxy-3-methyl-1H-pyrazol-4-yl)benzonitrile]: the IC50 at full-length human PHD1 and at full-length human PHD2 was under 100 nM in each case. On to `Cc1nn(-c2ccc([S@@](=N)(=O)C3CC3)cn2)c(O)c1-c1ccc(Cl)cc1` [Compound 65, (S)-(6-(4-(4-chlorophenyl)-5-hydroxy-3-methyl-1H-pyrazol-1-yl)pyridin-3-yl)(cyclopropyl)(imino)-λ^6-sulfanone], for which the IC50 against full-length human PHD1 and at full-length human PHD2 was under 100 nM in each case. With `Cc1nn(-c2ccc(S(=N)(=O)c3ccccc3)cn2)c(O)c1-c1ccc(C#N)cc1` (centres unmarked) [Compound 20, 4-(5-hydroxy-3-methyl-1-(5-(phenylsulfonimidoyl)pyridin-2-yl)-1H-pyrazol-4-yl)benzonitrile], the IC50 on full-length human PHD1 and at full-length human PHD2 was under 100 nM throughout. `Cc1cc(-n2nc(C)c(-c3ccc(C#N)cc3)c2O)ncc1S(C)(=O)=O` [Compound 46, 4-(5-hydroxy-3-methyl-1-(4-methyl-5-(methylsulfonyl)pyridin-2-yl)-1H-pyrazol-4-yl)benzonitrile]: the IC50 on full-length human PHD1 and on full-length human PHD2 was under 100 nM in each case. With `Cc1nn(-c2ccc([S@@](C)(=N)=O)cn2)c(O)c1-c1ccc(C#N)cc1` [Compound 16, (S)-4-(5-hydroxy-3-methyl-1-(5-(S-methylsulfonimidoyl)pyridin-2-yl)-1H-pyrazol-4-yl)benzonitrile], the IC50 against full-length human PHD1 and on full-length human PHD2 was under 100 nM throughout.

For `Cc1cc(-c2c(C)nn(-c3ccc(S(C)(=O)=O)cn3)c2O)ccc1O` [Compound 48, 4-(4-hydroxy-3-methylphenyl)-3-methyl-1-(5-(methylsulfonyl)pyridin-2-yl)-1H-pyrazol-5-ol], the half-inhibitory concentration (IC50) on full-length human PHD1 and against full-length human PHD2 was 100 to 1000 nM each time.

Compound `Cc1cc(-n2nc(C)c(-c3ccc(C#N)cc3)c2O)ncc1S(=O)(=O)N1CCCC1` [Compound 72, 4-(5-hydroxy-3-methyl-1-(4-methyl-5-(pyrrolidin-1-ylsulfonyl)pyridin-2-yl)-1H-pyrazol-4-yl)benzonitrile] registered an IC50 against full-length human PHD1 of under 100 nM.

Take `Cc1nn(-c2ccc(-c3nc(-c4ccccc4)cs3)cn2)c(O)c1-c1ccc(C#N)cc1` [Compound 62, 4-(5-Hydroxy-3-methyl-1-(5-(4-phenylthiazol-2-yl)pyridin-2-yl)-1H-pyrazol-4-yl)benzonitrile]: the IC50 against full-length human PHD1 is 100 to 1000 nM; at full-length human PHD2 it was over 10000 nM. As to `Cc1nn(-c2ccc([S@](C)(=N)=O)cn2)c(O)c1-c1ccc(C#N)cc1` [Compound 17, (R)-4-(5-hydroxy-3-methyl-1-(5-(S-methylsulfonimidoyl)pyridin-2-yl)-1H-pyrazol-4-yl)benzonitrile], the IC50 against full-length human PHD1 and at full-length human PHD2 was under 100 nM each time. In the case of `Cc1nn(-c2ccc(-c3nn[nH]n3)cn2)c(O)c1-c1ccc(C#N)cc1` [Compound 50, 4-(1-(5-(2H-tetrazol-5-yl)pyridin-2-yl)-5-hydroxy-3-methyl-1H-pyrazol-4-yl)benzonitrile], the IC50 at full-length human PHD1 and on full-length human PHD2 was under 100 nM in each case. On to `Cc1nn(-c2ccc(S(=N)(=O)C(C)C)cn2)c(O)c1-c1ccc(C#N)cc1` (centres unmarked) [Compound 19, 4-(5-hydroxy-3-methyl-1-(5-(propan-2-ylsulfonimidoyl)pyridin-2-yl)-1H-pyrazol-4-yl)benzonitrile], for which the IC50 on full-length human PHD1 and against full-length human PHD2 was under 100 nM each time.

Regarding `Cc1nn(-c2ccc(-c3ncco3)cn2)c(O)c1-c1ccc(C#N)cc1` [Compound 59, 4-(5-Hydroxy-3-methyl-1-(5-(oxazol-2-yl)pyridin-2-yl)-1H-pyrazol-4-yl)benzonitrile], the IC50 on full-length human PHD1 and against full-length human PHD2 was under 100 nM in each case. As to `Cc1nn(-c2ccc([S@+](C)[O-])cn2)c(O)c1-c1ccc(C#N)cc1` [Compound 22, (S)-4-(5-hydroxy-3-methyl-1-(5-(methylsulfinyl)pyridin-2-yl)-1H-pyrazol-4-yl)benzonitrile], the IC50 on full-length human PHD1 and against full-length human PHD2 was under 100 nM in each case. Take `Cc1nn(-c2ccc(S(=N)(N)=O)cn2)c(O)c1-c1ccc(C#N)cc1` (centres unmarked) [Compound 24, 6-(4-(4-cyanophenyl)-5-hydroxy-3-methyl-TH-pyrazol-1-yl)pyridine-3-sulfonimidamide]: the IC50 at full-length human PHD1 and against full-length human PHD2 was under 100 nM each time. On full-length human PHD1, `Cc1nn(-c2ccc(-c3cn(C)nn3)cn2)c(O)c1-c1ccc(C#N)cc1` [Compound 54, 4-(5-hydroxy-3-methyl-1-(5-(1-methyl-1H-1,2,3-triazol-4-yl)pyridin-2-yl)-1H-pyrazol-4-yl)benzonitrile] yielded an IC50 of under 100 nM.
